Columns and labels:
[1] = tested on: purified SDH of Ketogulonigenium sp. ADM 291-19; test: Substrate specificity of purified SDH, PMS-DCIP method; format: biochemical; conditions: 1-Propanol = 100
Experimental: The dehydrogenase enzyme activity was assayed spectrophotometrically using 2,6-dichlorophenol indophenol (DCIP) as an artificial electron acceptor and phenazine methosulphate (PMS) as an electron mediator. […] The rate of decrease in absorbance at 522 nm was determined. One unit of enzyme activity was defined as the amount of enzyme catalyzing reduction of 1 μmol of DCIP per minute.
(§1) First, the periplasmic proteins from the cells of K. robustum ADM X6L and Ketogulonigenium sp. ADM 291-19 obtained in Step 1 of Example 1 were prepared by osmotic shock fractionation as described in Step 3 of Example 1. About 50 ml of osmotic shock fluid containing periplasmic proteins was loaded onto a DEAE-TSK 650 (S) (Merck) column (2.5×15 cm) previously equilibrated with 10 mM Tris·HCl buffer (pH 8.0). The column was first washed with 80 ml of 10 mM Tris·HCl buffer (pH 8.0) containing 0.1 M NaCl, followed by a gradient elution with 600 ml of the same buffer containing 0.1-0.5 M NaCl. Fractions containing 5 ml of eluant were collected and assayed for the SDH enzyme activities with D-sorbitol, L-sorbose and glyoxal as substrate. […] At about 0.15 M NaCl, eluted red fractions that probably contained cytochrome c.
(§2) Active fractions eluted from DEAE column were pooled and further purified by gel filtration column chromatography. The active fractions were concentrated by about 20 fold with ultrafiltration in Centricon 30 (Amicon). The concentrate was loaded onto Superose 12 (Pharmacia) and eluted isocratically with 50 mM sodium phosphate buffer (pH 7.0) containing 0.15 M NaCl.
(§3) The purified enzymes were active toward D-sorbitol, L-sorbose and glyoxal.

[2] = tested on: purified SDH of K. robustum ADM X6L; test: as above; format: biochemical, Ketogulonigenium robustum ADM X6L; conditions: 1-Propanol = 100
Experimental: (§4) The dehydrogenase enzyme activity was assayed spectrophotometrically using 2,6-dichlorophenol indophenol (DCIP) as an artificial electron acceptor and phenazine methosulphate (PMS) as an electron mediator. The reaction mixture contained 50 mM Tris·HCl buffer (pH 8.0), 10 mM MgCl2, 5 mM CaCl2, 5 mM KCN, 0.1 mM PMS, 0.12 mM DCIP, a substrate as D-sorbitol (250 mM), L-sorbose (250 mM) or glyoxal (50 mM) and enzyme solution in a total volumn of 1.0 ml. The rate of decrease in absorbance at 522 nm was determined. One unit of enzyme activity was defined as the amount of enzyme catalyzing reduction of 1 μmol of DCIP per minute.
as §1, §2, §3

[3] = tested on: SDH; test: SDH activities in osmotic shock fractions, PMS-DCIP method; format: biochemical
Experimental: For more detailed localization study, periplasmic fraction was enriched by the method of osmotic shock (Neu, H. C. and Heppel, L. A., J. Biol. Chem., 240:3685 (1965)). Wet cells were resuspended at about 0.1 g/ml in 20% sucrose-0.03 M Tris·HCl buffer (pH 8.0) at room temperature. Di-sodium EDTA was added to 1 mM and the flask was shaken at 180 rpm at room temperature for 10 min. After centrifugation at 16,000 g for 20 min at 4° C., the supernatant was removed and the pellet was rapidly mixed with cold distilled water of the same volume as the original cell suspension and shaken in ice bucket in a shaker for 10 min. The mixture was centrifuged again to obtain the supernatant called “osmotic shock fluid”. The pellet was sonicated in the same buffer, centrifuged and the supernatant was obtained as “pellet sonicate”.
as §4
For further localization of the enzymes to periplasm or cytoplasm, periplasm was enriched by osmotic shock method as described in Step 3 of Example 1. In this method, the Tris-Sucrose wash and the osmotic shock fluid represent the periplasmic fraction and the pellet sonicate represents the cytoplasm and the cytoplasmic membrane. […] The remaining activity in pellet sonicate could be due to the incomplete release of periplasm by osmotic shock. Typical enzyme activity assay for SDH and β-galactosidase for fractions obtained by osmotic shock fractionation is shown in Table 3.

[4] = tested on: dehydrogenase enzyme activity (SDH) of K. robustum ADM X6L; test: Enzyme activity in cellular fractions, Ferric-Dupanol method (localization); format: biochemical, Ketogulonigenium robustum ADM X6L
Experimental: (§5) Cells were harvested by centrifugation at 12,000 g for 10 min, washed once with 10 mM Tris·HCl buffer (pH 8.0) and disrupted by sonication in a Branson Sonifier 450 for 15 min at 50% duty cycle in ice. The homogenate thus prepared was centrifuged at 12,000 g for 5 min to remove the cell debris. The resulting supernatant was centrifuged at 100,000 g for 90 min to get the supernatant as soluble fraction and the precipitate as crude membrane fraction. The crude membrane fraction was solubilized with 1.5% n-octyl glucoside by stirring for 2 hours at 4° C. The resultant suspension was centrifuged at 12,000 g for 10 min to give a supernatant, designated as solubilized membrane fraction.
(§6) Enzyme activity was determined also by the Ferric-Dupanol method (Wood, W. A. et al., Meth. Enzymol., 5, 287 (1962)). The enzyme was preincubated for 5 min at 25° C. The reaction was started by addition of 10 mM (final conc.) potassium ferricyanide and 250 mM (final conc.) D-sorbitol, L-sorbose, or glyoxal. After an appropriate time, the reaction was stopped by adding the ferric sulfate-Dupanol solution (Fe2(SO4)3.nH2O 5 g/l, Dupanol (sodium lauryl sulfate) 3 g/l and 85% phosphoric acid 95 ml/l) and the absorbance of the Prussian color developed was determined at 660 nm in a spectrophotometer.
(§7) Enzyme activities towards D-sorbitol, L-sorbose and glyoxal in different cellular fractions were determined for enzyme localization in K. robustum ADM X6L and Ketogulonigenium sp. ADM 291-19. In both cases, most of the enzyme activity detected in crude cell extract was found in the soluble fraction and the activity in solubilized membrane fraction was negligible when assayed with Ferric-Dupanol method.

[5] = tested on: dehydrogenase enzyme activity (SDH) of Ketogulonigenium sp. ADM 291-19; test: as above; format: biochemical
Experimental: as §5, §6, §7

[6] = tested on: purified SDH enzymes; test: Activity of the purified SDH enzymes toward substrates; format: biochemical, K. robustum ADM X6L and Ketogulonigenium sp. ADM 291-19; conditions: purified SDH enzymes of both strains
Experimental: as §1, §2, §3

[7] = tested on: K. robustum ADM X6L transformants; test: Bioconversion of D-sorbitol by transformants, HPLC of culture supernatant; format: cell-based, Ketogulonigenium robustum ADM X6L; conditions: for improvement of L-sorbose production from D-sorbitol upon overexpression: flask scale experiment, versus pXH2 control; for L-sorbose production from D-sorbitol upon overexpression (in words): flask scale experiments
Experimental: For expression of the three SDH genes in K. robustum strains, the genes with their own promoters were subcloned into the vector, pXH2/K5. These plasmids were transformed into the strains, K. robustum ADM X6L and 86-96 (NRRL B-21630), by electroporation. In this case, gene dosage effect may be expected due to the apparent high copy number of the plasmid pXH2/K5. The transformants were analyzed by HPLC for improved conversion activity upon overexpression of each SDH gene using D-sorbitol and L-sorbose as substrate.
The effect of overexpression of the three SDH genes in bioconversion activity was analyzed by HPLC analysis of the product profile of the culture supernatant of transformants in a medium containing D-sorbitol or L-sorbose as substrate. The transformants were cultivated overnight in RM medium containing 20 μg/ml of Kanamycin. This overnight culture was used to inoculate the 25 ml RM medium (supplemented with 20 μg/ml of Kanamycin) containing 20 g/l of D-sorbitol or 20 g/l of L-sorbose as substrate instead of mannitol. The culture supernatant samples were taken in a 12-hour interval and were analyzed by HPLC (Gilson HPLC with RI detector (ERC-7515A, ERC Inc.)) equipped with Asted XL automatic sample injector. Samples were loaded on two 2 mm×300 mm×7.8 mm Aminex HPX-87H columns (BioRad) arranged in series to provide a total column length of 600 mm. The column was run at 50° C. at a flow rate of 0.5 ml/min. The peaks were identified and the concentration was determined by comparison with those of the standards using glycerol as internal standard.
K. robustum ADM X6L transformants harboring the pXSDH1, pXSDH2 or pXSDH3 were cultivated with D-sorbitol or L-sorbose as substrate. HPLC analysis of the products from D-sorbitol (Table 10) or L-sorbose (Table 11) is shown below. A transformant harboring pXH2 served as control.

Q: With `CCCO` [1-Propanol] as the molecule, how does the “% relative activity, ADM291-19” value ([1]; substrate 50 mM) read?
A: 100%

Q: What about the “% relative activity, ADM X6L” value ([2]; substrate 50 mM) of the same molecule?
A: 100%

Q: `O=C(CO)[C@@H](O)[C@H](O)[C@H](O)CO` [D-Fructose] was tested. Which “% relative activity, ADM291-19” value ([1]; substrate 250 mM) did it give?
A: 11.7%

Q: And the “% relative activity, ADM X6L” value ([2]; substrate 250 mM)?
A: 8.0%

Q: Which results are given for `O=C(O)[C@H](O)[C@@H](O)[C@H](O)[C@H](O)CO` [D-Gluconate]?
A: % relative activity, ADM291-19 ([1]; substrate 250 mM): 20.0%; % relative activity, ADM X6L ([2]; substrate 250 mM): 30.6%

Q: For `O=C[C@H](O)[C@@H](O)[C@H](O)[C@H](O)CO` [D-Glucose], which “% relative activity, ADM291-19” value ([1]; substrate 250 mM) is on record?
A: 20.0%

Q: What about the “% relative activity, ADM X6L” value ([2]; substrate 250 mM) of the same molecule?
A: 27.6%

Q: For `OC[C@@H](O)[C@@H](O)[C@H](O)[C@H](O)CO` [D-Mannitol], which “% relative activity, ADM291-19” value ([1]; substrate 100 mM) is on record?
A: 0%

Q: What about the “% relative activity, ADM X6L” value ([2]; substrate 100 mM) of the same molecule?
A: 26.6%

Q: How did the “SDH activity, Osmotic Shock Fluid” value ([3]; Osmotic Shock Fluid (periplasmic fraction)) turn out when `OC[C@@H](O)[C@@H](O)[C@H](O)[C@@H](O)CO` [D-sorbitol] was run?
A: 0.45 ΔOD/min/50 μl enzyme

Q: And the “SDH activity, Pellet Sonicate” value ([3]; Pellet Sonicate (cytoplasm and cytoplasmic membrane))?
A: 0.68 ΔOD/min/50 μl enzyme

Q: What about the “SDH activity, Tris-Sucrose Wash” value ([3]; Tris-Sucrose Wash (periplasmic fraction)) of the same molecule?
A: 0.31 ΔOD/min/50 μl enzyme

Q: What about the “enzyme activity, Cell Free Extract” value ([4]; Cell Free Extract) of the same molecule?
A: 0.92 ΔOD/min/4 μl enzyme

Q: What about the “enzyme activity, Membrane Fraction” value ([4]; Membrane Fraction) of the same molecule?
A: 0.01 ΔOD/min/4 μl enzyme

Q: What about the “enzyme activity, Soluble Fraction” value ([4]; Soluble Fraction) of the same molecule?
A: 0.90 ΔOD/min/4 μl enzyme

Q: What about the “enzyme activity, Cell Free Extract” value ([5]; Cell Free Extract) of the same molecule?
A: 0.66 ΔOD/min/2 μl enzyme

Q: What about the “enzyme activity, Membrane Fraction” value ([5]; Membrane Fraction) of the same molecule?
A: 0.00 ΔOD/min/2 μl enzyme

Q: And the “enzyme activity, Soluble Fraction” value ([5]; Soluble Fraction)?
A: 0.65 ΔOD/min/2 μl enzyme

Q: And the “activity of the purified enzymes toward the substrate (in words)” value [6]?
A: active

Q: And the “% relative activity, ADM291-19” value ([1]; substrate 250 mM)?
A: 12.4%

Q: And the “% relative activity, ADM X6L” value ([2]; substrate 250 mM)?
A: 12.6%

Q: With `CCO` [Ethanol] as the molecule, how does the “% relative activity, ADM291-19” value ([1]; substrate 50 mM) read?
A: 38.0%

Q: What about the “% relative activity, ADM X6L” value ([2]; substrate 50 mM) of the same molecule?
A: 20.0%

Q: Which “% relative activity, ADM291-19” value ([1]; substrate 250 mM) does the source give for `OCC(O)CO` [Glycerol] here?
A: 32.5%

Q: What about the “% relative activity, ADM X6L” value ([2]; substrate 250 mM) of the same molecule?
A: 56.5%

B1: SDH3: sorbitol dehydrogenase of K. robustum ADM 86-96, 580 amino acids (SEQ ID NO:8) (protein, listed as Ketogulonigenium sp.)
chain: MRPTTLLRTSAAVLLLGPIPAFAQVTPITDELLANPPAGEWINYGRNQENYRHSPLEQITTDNVGQLQLVWARGMEAGAVQVTPMIHDGVMYLANPGDVIQAIDAKTGDLMWEHRRQLPPVASLNGQGDRKRGVALYGTNLYFTSWDNHLVALDMATGQVVFDVERGSGDDGLTSNTSGPIVANGVIVAGSTCQYSPYGCFVSGHDPASGEELWRNYFIPQAGEEGDETWGNDFESRWMTGVWGQLTYDPVTNLVHYGSTGVGPASETQRGTPGGTLYGTNTRFAVRPDTGEIVWRHQTLPRDNWDQECTFEMMVANVDVQPAADMDGVQAINPNATTGERRVLTGIPCKTGTMWQFDAETGEFLWARDTNYQNLIASIDETGLVTVNEDSVLTQLDTDYDICPTFLGGRDWPSAALNPDSGIYFIPLNNACVDIMAVDQEFSALDVYNTSASYKLAPGFENMGRIDAIDISTGKTLWSAERLASNYSPVLSTAGGVLFNGGTDRYLRALSQETGETLWQTRLASVATGQAISYEIDGTQYVAIAGGGSTYGTNQNRALSEAIDSTTIGNAVYVFALPQQ
Q: Which results are given for B1?
A: improvement of L-sorbose production from D-sorbitol upon overexpression [7]: ~3 times; L-sorbose production from D-sorbitol upon overexpression (in words) [7]: significantly improved

B2: SDH1: sorbitol dehydrogenase of K. robustum ADM 86-96, 578 amino acids (SEQ ID NO:5) (protein, listed as Ketogulonigenium sp.)
chain: MKSNSLLLASVAAVAFFAVPAFADVTPVTDELLANPPAGEWISYGRNQENYRHSPLNQITPDNVGQLQLVWARGMNPGVVQVTPLIHDGVMYLANPGDIIQAIDAKTGDLIWEHRRQLPETSTLSSLGDRKRGIALYGTNVYFVSWDNHMVALDAASGQVVFDVDRGQGDERVSNSSGPIVANGVIVAGSTCQYSPFGCFVSGHDASTGEELWRNYFIPQAGEEGDETWGNDYEARWMTGVWGQITYDPTTNLVFYGSSAVGPASEVQRGTPGGTLYGTNTRFAVRPDTGEVVWRHQTLPRDNWDQECTFEMMVANVDVQPAADMDGVQAINPNAATGERRVLTGVPCKTGTMWQFDAETGEFLWARDTNYQNMISSIDETGLVTVNEDIILKDLDTDYRICPTFLGGRDWPSASLNPDSGIYFIPLNNACADLAAVDQEFTAMDVYNTSATYLLAPEKENMGRIDAIDISTGKTLWSVERLASNYSPVLSTAGGVLFNGGSDRYFRALSEETGETLWQTRLATVASGQAISYELDGVQYVAIAGGGNTYGTNLNSNIGATIDSTSIGNAVYVFALPQ
Q: Which “improvement of L-sorbose production from D-sorbitol upon overexpression” value [7] does the source give for B2 here?
A: ~2 times

Q: And the “L-sorbose production from D-sorbitol upon overexpression (in words)” value [7]?
A: significantly improved

Reference: patent US20030228672A1, “Sorbitol dehydrogenases of ketogulonigenium species, genes and methods of use thereof” (priority 2002, published 2003)
